Reference: patent US9499550B2 (BRISTOL-MYERS SQUIBB COMPANY, priority 2012, dated 2016)

What was measured:
[1] = test system: HCV genotype 1b (Con1) replicon in HUH-7 cells; assay: HCV replicon luciferase reporter assay, genotype 1b; format: cell-based; conditions: Hepatitis C virus, Huh-7, 72 h, HCV genotype 1b replicon luciferase, 3 days incubation, read-out: LE_1b (EC50, range)
In short: (§1)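 Replicon inhibition for both genotypes was measured as Renilla luciferase signal (EnduRen, 7.5 μM final, 2 h) after 3-day, 37° C exposure of replicon-bearing HUH-7 cells in 4% FCS DMEM, 0.5% DMSO. The 1b construct carries S1179I; the 1a H77 construct carries P1496L and S2204I. Twenty-point, 3-fold dilutions were fitted four-parametrically for EC50, and CC50 was taken from multiplexed Cell Titer-Blue.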

[2] = test system: HCV genotype 1a (H77 strain) replicon in HUH-7 cells; assay: HCV replicon luciferase reporter assay, genotype 1a; format: cell-based; conditions: Hepatitis C virus, Huh-7, 72 h, HCV genotype 1a replicon luciferase, 3 days incubation, read-out: LE_1a (EC50, range)
In short: as §1

Row | SMILES | EC50 [1] | EC50 [2]
1 | [2H]C([2H])([2H])Oc1cnc(O[C@@H]2C[C@H]3C(=O)N[C@]4(C(=O)NS(=O)(=O)C5(C)CC5)C[C@H]4/C=C\CC[C@H](C)C[C@@H](C)[C@H](NC(=O)OC(C([2H])([2H])[2H])(C([2H])([2H])[2H])C(F)(F)F)C(=O)N3C2)c2ccccc12 [Compound 5104, 1,1,1,3,3,3-hexadeutero-2-(trifluoromethyl)propan-2-yl((2R,6S,7R,9S,13aS,14aR,16aS,Z)-7,9-dimethyl-14a-(((1-methylcyclopropyl)sulfonyl)carbamoyl)-5,16-dioxo-2-((4-(trideuteromethoxy)isoquinolin-1-yl)oxy)-1,2,3,5,6,7,8,9,10,11,13a,14,14a,15,16,16a-hexadecahydrocyclopropa[e]pyrrolo[1,2-a][1,4]diazacyclopentadecin-6-yl)carbamate] | < 5.46 nM | < 5.46 nM
2 | [2H]C([2H])([2H])Oc1cnc(O[C@@H]2C[C@H]3C(=O)N[C@]4(C(=O)NS(=O)(=O)C5(C)CC5)C[C@H]4/C=C\CC[C@@H](C)C[C@@H](C)[C@H](NC(=O)OC(C([2H])([2H])[2H])(C([2H])([2H])[2H])C(F)(F)F)C(=O)N3C2)c2ccccc12 [Compound 5105, 1,1,1,3,3,3-hexadeutero-2-(trifluoromethyl)propan-2-yl((2R,6S,7R,9R,13aS,14aR,16aS,Z)-7,9-dimethyl-14a-(((1-methylcyclopropyl)sulfonyl)carbamoyl)-5,16-dioxo-2-((4-(trideuteromethoxy)isoquinolin-1-yl)oxy)-1,2,3,5,6,7,8,9,10,11,13a,14,14a,15,16,16a-hexadecahydrocyclopropa[e]pyrrolo[1,2-a][1,4]diazacyclopentadecin-6-yl)carbamate] | < 5.46 nM | < 5.46 nM
3 | [2H]C([2H])([2H])Oc1cnc(O[C@@H]2C[C@H]3C(=O)N[C@]4(C(=O)NS(=O)(=O)C5(C)CC5)C[C@H]4/C=C\CC[C@H](C)C[C@@H](C)[C@H](NC(=O)NC(C)(C)C)C(=O)N3C2)c2ccccc12 [Compound 5106, (2R,6S,7R,9S,13aS,14aR,16aS,Z)-6-(3-(tert-butyl)ureido)-7,9-dimethyl-N-((1-methylcyclopropyl)sulfonyl)-5,16-dioxo-2-((4-(trideuteromethoxy)isoquinolin-1-yl)oxy)-1,2,3,5,6,7,8,9,10,11,13a,14,14a,15,16,16a-hexadecahydrocyclopropa[e]pyrrolo[1,2-a][1,4]diazacyclopentadecine-14a-carboxamide] | < 5.46 nM | < 5.46 nM
4 | [2H]C([2H])([2H])Oc1cnc(O[C@@H]2C[C@H]3C(=O)N[C@]4(C(=O)NS(=O)(=O)C5(C)CC5)C[C@H]4/C=C\CC[C@@H](C)C[C@@H](C)[C@H](NC(=O)NC(C)(C)C)C(=O)N3C2)c2ccccc12 [Compound 5107, (2R,6S,7R,9R,13aS,14aR,16aS,Z)-6-(3-(tert-butyl)ureido)-7,9-dimethyl-N-((1-methylcyclopropyl)sulfonyl)-5,16-dioxo-2-((4-(trideuteromethoxy)isoquinolin-1-yl)oxy)-1,2,3,5,6,7,8,9,10,11,13a,14,14a,15,16,16a-hexadecahydrocyclopropa[e]pyrrolo[1,2-a][1,4]diazacyclopentadecine-14a-carboxamide] | < 5.46 nM | < 5.46 nM
5 | [2H]C([2H])([2H])Oc1cnc(O[C@@H]2C[C@H]3C(=O)N[C@]4(C(=O)NS(=O)(=O)C5(C)CC5)C[C@H]4/C=C\CC[C@H](C)C[C@@H](C)[C@H](NC(=O)OC(C)(C)C(C)(F)F)C(=O)N3C2)c2ccccc12 [Compound 5108, 3,3-difluoro-2-methylbutan-2-yl((2R,6S,7R,9S,13aS,14aR,16aS,Z)-7,9-dimethyl-14a-(((1-methylcyclopropyl)sulfonyl)carbamoyl)-5,16-dioxo-2-((4-(trideuteromethoxy)isoquinolin-1-yl)oxy)-1,2,3,5,6,7,8,9,10,11,13a,14,14a,15,16,16a-hexadecahydrocyclopropa[e]pyrrolo[1,2-a][1,4]diazacyclopentadecin-6-yl)carbamate] | < 5.46 nM | < 5.46 nM
6 | [2H]C([2H])([2H])Oc1cnc(O[C@@H]2C[C@H]3C(=O)N[C@]4(C(=O)NS(=O)(=O)C5(C)CC5)C[C@H]4/C=C\CC[C@@H](C)C[C@@H](C)[C@H](NC(=O)OC(C)(C)C(C)(F)F)C(=O)N3C2)c2ccccc12 [Compound 5109, 3,3-difluoro-2-methylbutan-2-yl((2R,6S,7R,9R,13aS,14aR,16aS,Z)-7,9-dimethyl-14a-(((1-methylcyclopropyl)sulfonyl)carbamoyl)-5,16-dioxo-2-((4-(trideuteromethoxy)isoquinolin-1-yl)oxy)-1,2,3,5,6,7,8,9,10,11,13a,14,14a,15,16,16a-hexadecahydrocyclopropa[e]pyrrolo[1,2-a][1,4]diazacyclopentadecin-6-yl)carbamate] | < 5.46 nM | < 5.46 nM
7 | [2H]C([2H])([2H])Oc1cnc(O[C@@H]2C[C@H]3C(=O)N[C@]4(C(=O)NS(=O)(=O)C5(C)CC5)C[C@H]4CCCC[C@@H](C)C[C@@H](C)[C@H](NC(=O)OC(C)(C)C(F)(F)F)C(=O)N3C2)c2ccccc12 [Compound 5111, 1,1,1-trifluoro-2-methylpropan-2-yl((2R,6S,7R,9R,13aR,14aR,16aS)-7,9-dimethyl-14a-(((1-methylcyclopropyl)sulfonyl)carbamoyl)-5,16-dioxo-2-((4-(trideuteromethoxy)isoquinolin-1-yl)oxy)octadecahydrocyclopropa[e]pyrrolo[1,2-a][1,4]diazacyclopentadecin-6-yl)carbamate] | < 5.46 nM | < 5.46 nM
8 | COc1cnc(O[C@@H]2C[C@H]3C(=O)N[C@]4(C(=O)NS(=O)(=O)C5(CF)CC5)C[C@H]4CCCC[C@@H](C)C[C@@H](C)[C@H](NC(=O)OC(C)(C)C)C(=O)N3C2)c2ccccc12 [Compound 5115, tert-butyl ((2R,6S,7R,9R,13aR,14aR,16aS)-14a-(((1-(fluoromethyl)cyclopropyl)sulfonyl)carbamoyl)-2-((4-methoxyisoquinolin-1-yl)oxy)-7,9-dimethyl-5,16-dioxooctadecahydrocyclopropa[e]pyrrolo[1,2-a][1,4]diazacyclopentadecin-6-yl)carbamate] | < 5.46 nM | < 5.46 nM
9 | COc1cnc(O[C@@H]2C[C@H]3C(=O)N[C@]4(C(=O)NS(=O)(=O)C5(CF)CC5)C[C@H]4CCCC[C@H](C)C[C@@H](C)[C@H](NC(=O)OC(C)(C)C(F)(F)F)C(=O)N3C2)c2ccccc12 [Compound 5116, 1,1,1-trifluoro-2-methylpropan-2-yl((2R,6S,7R,9S,13aR,14aR,16aS)-14a-(((1-(fluoromethyl)cyclopropyl)sulfonyl)carbamoyl)-2-((4-methoxyisoquinolin-1-yl)oxy)-7,9-dimethyl-5,16-dioxooctadecahydrocyclopropa[e]pyrrolo[1,2-a][1,4]diazacyclopentadecin-6-yl)carbamate] | 4.82 to 103 nM | > 87.4 nM
10 | COc1cnc(O[C@@H]2C[C@H]3C(=O)N[C@]4(C(=O)NS(=O)(=O)C5(CF)CC5)C[C@H]4CCCC[C@@H](C)C[C@@H](C)[C@H](NC(=O)OC(C)(C)C(F)(F)F)C(=O)N3C2)c2ccccc12 [Compound 5117, 1,1,1-trifluoro-2-methylpropan-2-yl((2R,6S,7R,9R,13aR,14aR,16aS)-14a-(((1-(fluoromethyl)cyclopropyl)sulfonyl)carbamoyl)-2-((4-methoxyisoquinolin-1-yl)oxy)-7,9-dimethyl-5,16-dioxooctadecahydrocyclopropa[e]pyrrolo[1,2-a][1,4]diazacyclopentadecin-6-yl)carbamate] | < 5.46 nM | < 5.46 nM
11 | COc1cnc(O[C@@H]2C[C@H]3C(=O)N[C@]4(C(=O)NS(=O)(=O)C5(CF)CC5)C[C@H]4CCCC[C@H](C)C[C@@H](C)[C@H](NC(=O)OC(C)(C)C(C)(F)F)C(=O)N3C2)c2ccccc12 [Compound 5118, 3,3-difluoro-2-methylbutan-2-yl ((2R,6S,7R,9S,13 aR,14aR,16aS)-14a-(((1-(fluoromethyl)cyclopropyl)sulfonyl)carbamoyl)-2-((4-methoxyisoquinolin-1-yl)oxy)-7,9-dimethyl-5,16-dioxooctadecahydrocyclopropa[e]pyrrolo[1,2-a][1,4]diazacyclopentadecin-6-yl)carbamate] | 4.82 to 103 nM | 4.82 to 103 nM
12 | COc1cnc(O[C@@H]2C[C@H]3C(=O)N[C@]4(C(=O)NS(=O)(=O)C5(CF)CC5)C[C@H]4CCCC[C@@H](C)C[C@@H](C)[C@H](NC(=O)OC(C)(C)C(C)(F)F)C(=O)N3C2)c2ccccc12 [Compound 5119, 3,3-difluoro-2-methylbutan-2-yl ((2R,6S,7R,9R,13 aR,14aR,16aS)-14a-(((1-(fluoromethyl)cyclopropyl)sulfonyl)carbamoyl)-2-((4-methoxyisoquinolin-1-yl)oxy)-7,9-dimethyl-5,16-dioxooctadecahydrocyclopropa[e]pyrrolo[1,2-a][1,4]diazacyclopentadecin-6-yl)carbamate] | < 5.46 nM | < 5.46 nM
13 | COc1cnc(O[C@@H]2C[C@H]3C(=O)N[C@]4(C(=O)NS(=O)(=O)C5(CF)CC5)C[C@H]4CCCC[C@@H](C)C[C@@H](C)[C@H](NC(=O)NC(C)(C)C)C(=O)N3C2)c2ccccc12 [Compound 5120, (2R,6S,7R,9R,13aR,14aR,16aS)-6-(3-(tert-butyl)ureido)-N-((1-(fluoromethyl)cyclopropyl)sulfonyl)-2-((4-methoxyisoquinolin-1-yl)oxy)-7,9-dimethyl-5,16-dioxooctadecahydrocyclopropa[e]pyrrolo[1,2-a][1,4]diazacyclopentadecine-14a-carboxamide] | < 5.46 nM | < 5.46 nM
